Assay results taken from ChEMBL document CHEMBL1201862, “PubChem BioAssay data set” (2004).
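Protocol summary: plate cells (96-well), add compound at 5 concentrations, incubate 48 h, interpolate endpoints linearly. Abbreviation: GI50, concentration required for 50% inhibition of growth.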 Calls of active or inactive are those of the source. No stated cut-off is given here; in the data, active = GI50 up to about 1.1 µM and inactive = higher.

Legend:
Experiment in all cases: NCI anticancer screen, dose series, 48 h
[1] = test system: 786-0
[2] = test system: A498
[3] = test system: A549
[4] = test system: ACHN
[5] = test system: BT-549
[6] = test system: CAKI-1
[7] = test system: CCRF-CEM
[8] = test system: COLO 205
[9] = test system: DU-145
[10] = test system: EKVX
[11] = test system: HCC 2998
[12] = test system: HCT-116
[13] = test system: HCT-15
[14] = test system: HL-60
[15] = test system: HOP-62
[16] = test system: HOP-92
[17] = test system: HT-29
[18] = test system: Hs-578T
[19] = test system: IGROV-1
[20] = test system: K562
[21] = test system: KM12
[22] = test system: LOX IMVI
[23] = test system: M14
[24] = test system: MCF7
[25] = test system: MDA-MB-231
[26] = test system: MDA-MB-435
[27] = test system: MDA-N
[28] = test system: MOLT-4
[29] = test system: Malme-3M
[30] = test system: NCI-H226
[31] = test system: NCI-H23
[32] = test system: NCI-H460
[33] = test system: NCI-H522
[34] = test system: NCI/ADR-RES
[35] = test system: OVCAR-3
[36] = test system: OVCAR-4
[37] = test system: OVCAR-5
[38] = test system: OVCAR-8
[39] = test system: PC-3
[40] = test system: RXF 393
[41] = test system: SF-268
[42] = test system: SF-295
[43] = test system: SF-539
[44] = test system: SK-MEL-28
[45] = test system: SK-MEL-2
[46] = test system: SK-MEL-5
[47] = test system: SK-OV-3
[48] = test system: SN12C
[49] = test system: SNB-19
[50] = test system: SNB-75
[51] = test system: SW-620
[52] = test system: T47D
[53] = test system: TK-10
[54] = test system: U-251
[55] = test system: UACC-257
[56] = test system: UACC-62
[57] = test system: RPMI-8226
[58] = test system: SR
[59] = test system: UO-31

With `Cc1ccc(-c2cc(-c3ccc(Cl)cc3)nc(/N=C3\C(=O)N(CN4CCOCC4)c4ccccc43)n2)cc1` the GI50 [1] was 21.4 µM (inactive), the GI50 [2] was 18.8 µM (inactive) and the GI50 [3] was 17.5 µM (inactive). The GI50 [4] was 23.3 µM (inactive), the GI50 [5] was 27.5 µM (inactive) and the GI50 [6] was 32 µM (inactive). For the same molecule, the GI50 [7] was 14.3 µM (inactive), the GI50 [8] was 26 µM (inactive) and the GI50 [9] was 33.2 µM (inactive). For the same molecule, the GI50 [10] was 30.8 µM (inactive), the GI50 [11] was 18.6 µM (inactive) and the GI50 [12] was 24.9 µM (inactive). The GI50 [13] was 26.6 µM, the GI50 [14] was 9.02 µM (inactive) and the GI50 [15] was 28 µM (inactive). For the same molecule, the GI50 [16] was 22.5 µM (inactive), the GI50 [17] was 20.1 µM (inactive) and the GI50 [18] was 22.9 µM (inactive). The GI50 [19] was 15.2 µM (inactive), the GI50 [20] was 23.1 µM (inactive) and the GI50 [21] was 22.4 µM (inactive). For the same molecule, the GI50 [22] was 24.2 µM (inactive), the GI50 [23] was 26.2 µM (inactive) and the GI50 [24] was 19 µM (inactive). For the same molecule, the GI50 [25] was 33.3 µM (inactive), the GI50 [26] was 19 µM (inactive) and the GI50 [27] was 18.5 µM (inactive). The GI50 [28] was 8.69 µM (inactive), the GI50 [29] was 22.9 µM (inactive) and the GI50 [30] was 35.6 µM (inactive). The GI50 [31] was 18.8 µM (inactive), the GI50 [32] was 14 µM (inactive) and the GI50 [33] was 14.3 µM (inactive). For the same molecule, the GI50 [34] was 27.2 µM (inactive), the GI50 [35] was 33.9 µM (inactive) and the GI50 [36] was 28.7 µM (inactive). For the same molecule, the GI50 [37] was 21.6 µM (inactive), the GI50 [38] was 19.5 µM (inactive) and the GI50 [39] was 26.5 µM (inactive). For the same molecule, the GI50 [40] was 16.4 µM (inactive), the GI50 [41] was 30.4 µM (inactive) and the GI50 [42] was 40.9 µM (inactive). For the same molecule, the GI50 [43] was 19.5 µM (inactive), the GI50 [44] was 49.1 µM (inactive) and the GI50 [45] was 18.3 µM (inactive). The GI50 [46] was 17.6 µM (inactive), the GI50 [47] was 31.1 µM (inactive) and the GI50 [48] was 30.8 µM (inactive). For the same molecule, the GI50 [49] was 15.1 µM (inactive), the GI50 [50] was 25.4 µM (inactive) and the GI50 [51] was 17 µM (inactive). The GI50 [52] was 32.9 µM (inactive), the GI50 [53] was 31 µM (inactive) and the GI50 [54] was 23.7 µM (inactive). For the same molecule, the GI50 [55] was 19.5 µM (inactive) and the GI50 [56] was 20 µM (inactive).
In the case of `C/C=C/C=C\C=C/C(O)C(C)C(CCC(C)C1OC(=O)C=CC1C)OP(=O)(O)O` (centres undefined), the GI50 [1] is reported as 0.404 µM (active), the GI50 [2] is reported as 0.22 µM (active) and the GI50 [3] is reported as 0.538 µM (active). The GI50 [4] was 0.351 µM (active), the GI50 [5] was 0.224 µM (active) and the GI50 [6] was 0.136 µM (active). The GI50 [7] was 0.243 µM (active), the GI50 [8] was 0.268 µM (active) and the GI50 [9] was 0.399 µM (active). For the same molecule, the GI50 [10] was 0.447 µM (active), the GI50 [12] was 0.251 µM (active) and the GI50 [13] was 0.445 µM. For the same molecule, the GI50 [14] was 0.0425 µM (active), the GI50 [15] was 0.303 µM (active) and the GI50 [16] was 0.244 µM (active). The GI50 [17] was 0.376 µM (active), the GI50 [18] was 1.42 µM (inactive) and the GI50 [19] was 0.275 µM (active). For the same molecule, the GI50 [20] was 0.183 µM (active), the GI50 [21] was 0.318 µM (active) and the GI50 [22] was 0.314 µM (active). The GI50 [23] was 0.229 µM (active), the GI50 [24] was 0.272 µM (active) and the GI50 [25] was 35.8 µM (inactive). For the same molecule, the GI50 [26] was 0.133 µM (active), the GI50 [27] was 0.296 µM (active) and the GI50 [28] was 0.275 µM (active). For the same molecule, the GI50 [29] was 0.232 µM (active), the GI50 [30] was 0.614 µM (active) and the GI50 [31] was 1.52 µM (inactive). For the same molecule, the GI50 [32] was 0.4 µM (active), the GI50 [33] was 1.35 µM (inactive) and the GI50 [34] was 0.897 µM (active). The GI50 [35] was 0.182 µM (active), the GI50 [36] was 1.23 µM (inactive) and the GI50 [37] was 0.263 µM (active). The GI50 [38] was 0.451 µM (active), the GI50 [39] was 0.23 µM (active) and the GI50 [57] was 127 nM (active). The GI50 [40] was 0.527 µM (active), the GI50 [41] was 0.59 µM (active) and the GI50 [42] was 0.287 µM (active). For the same molecule, the GI50 [43] was 0.461 µM (active), the GI50 [44] was 0.804 µM (active) and the GI50 [45] was 0.692 µM (active). The GI50 [46] was 0.658 µM (active), the GI50 [47] was 0.502 µM (active) and the GI50 [48] was 0.323 µM (active). The GI50 [49] was 0.562 µM (active), the GI50 [50] was 0.986 µM (active) and the GI50 [58] was 176 nM (active). For the same molecule, the GI50 [51] was 0.479 µM (active), the GI50 [52] was 0.386 µM (active) and the GI50 [53] was 0.618 µM (active). For the same molecule, the GI50 [54] was 0.893 µM (active), the GI50 [55] was 1.15 µM (inactive) and the GI50 [56] was 0.319 µM (active). For the same molecule, the GI50 [59] was 399 nM (active).
